{
  "source": "paper PMC7238120",
  "about": "“Strong and Selective Inhibitory Effects of the Biflavonoid Selamariscina A against CYP2C8 and CYP2C9 Enzyme Activities in Human Liver Microsomes” (Pharmaceutics, 2020)",
  "target": "T1, CYP2C8 (Homo sapiens, UniProt P10632)",
  "T1 sequence (P10632 1-490)": "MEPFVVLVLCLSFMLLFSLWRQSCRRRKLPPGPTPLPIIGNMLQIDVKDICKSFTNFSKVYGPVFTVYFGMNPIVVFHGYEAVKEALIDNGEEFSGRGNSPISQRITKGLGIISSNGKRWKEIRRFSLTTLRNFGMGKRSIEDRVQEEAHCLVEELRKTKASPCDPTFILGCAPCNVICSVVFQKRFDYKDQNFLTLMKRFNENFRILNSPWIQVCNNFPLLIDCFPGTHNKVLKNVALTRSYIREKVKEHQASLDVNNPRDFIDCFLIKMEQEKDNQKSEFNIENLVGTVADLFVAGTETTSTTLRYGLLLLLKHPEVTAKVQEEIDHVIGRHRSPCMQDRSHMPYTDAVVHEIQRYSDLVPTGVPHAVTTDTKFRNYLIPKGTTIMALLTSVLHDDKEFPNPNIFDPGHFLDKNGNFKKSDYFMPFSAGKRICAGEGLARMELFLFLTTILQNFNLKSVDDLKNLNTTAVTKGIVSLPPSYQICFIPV",
  "assay": "Inhibition of CYP2C8-catalyzed amodiaquine N-deethylation in pooled human liver microsomes",
  "format": "in vitro ADME",
  "set-up": "incubation mixtures containing pooled human liver microsomes (HLMs, XTreme 200, XenoTech); tissue XenoTech XTreme 200; host or cells: pooled human liver microsomes",
  "conditions": "for Ki: amodiaquine 0.1, 0.4, 1 µM, average ± standard error, triplicate; for IC50: substrate amodiaquine 1 µM, read-out: IC50, P450 2C8; for IC50 / inhibition at 10 min, 0.5 µM: pooled HLMs 0.25 mg/mL; for inhibition at 10 min, 0.5 µM: inhibitor 0.5 μM",
  "procedure": "The inhibitory potential of the five biflavonoids on the metabolism of nine P450 probe substrates was evaluated using previously developed methods with minor modifications. Biflavonoids were dissolved in methanol. The final concentration of methanol in the incubation mixture was 1.0% (v/v). We used these P450 probe substrates: phenacetin for CYP1A2, coumarin for CYP2A6, bupropion for CYP2B6, amodiaquine for CYP2C8, diclofenac for CYP2C9, omeprazole for CYP2C19, dextromethorphan for CYP2D6, chlorzoxazone for CYP2E1 and midazolam for CYP3A (Table 1). The incubation mixtures containing pooled human liver microsomes (HLMs, XTreme 200, XenoTech), P450 probe substrates, and inhibitor (0~20 µM) were pre-incubated at 37 °C for 5 min. The concentration range of the inhibitor varied (0, 0.002, 0.005, 0.02, 0.05, and 0.2 µM for CYP2C8; 0, 0.02, 0.05, 0.2, 0.5, and 2 µM for CYP2C9; 0, 0.5, 2, 5, 10, and 20 µM for other P450 isoforms). After pre-incubation, a reduced nicotinamide adenine dinucleotide phosphate (NADPH) generation system containing 1 unit/ml G6PDH, 1.3 mM β- nicotinamide adenine dinucleotide phosphate (β- NADP^+), 3.3 mM MgCl2, and 3.3 mM G6P was added to initiate a reaction, and further incubated for 10 min at 37 °C. The reaction was stopped by adding 50 μL of ice-cold acetonitrile containing 7 nM trimipramine (internal standard, IS). After centrifugation at 18,000 g (5 min, 4 °C), aliquots of supernatants were analyzed by LC–MS/MS (Shimadzu LCMS 8060 system, Shimadzu, Kyoto, Japan). All microsomal incubations were conducted in triplicate.\nThe other conditions were the same as in the cytochrome P450 inhibition study.\nWe used HLMs to determine the mechanisms and constants (Ki values) for selamariscina A inhibition of CYP1A2, CYP2B6, CYP2C8, CYP2C9 and CYP3A. The selamariscina A (0~50 μM) was added into the reaction mixtures, each of which contained concentrations of phenacetin (20, 50, and 100 μM), bupropion (20, 50, and 100 μM), amodiaquine (0.1, 0.4, and 1 μM), rosiglitazone (2, 5, and 10 μM), diclofenac (1, 4, and 10 μM), tolbutamide (50, 100, and 200 μM), and midazolam (0.5, 2, and 5 μM). The substrates were used at concentrations approximately near to their respective Km values. The concentration range of selamariscina A varied (0, 0.002, 0.005, 0.02, 0.05, and 0.2 μM for CYP2C8; 0, […], 0.02, 0.05, 0.2, and 0.5 μM for CYP2C9; 0, 0.2, 0.5, 2, 5, and 20 µM for CYP3A; 0, 0.5, 2, 5, 20, and 50 μM for CYP1A2 and CYP2B6). The other conditions were the same as in the cytochrome P450 inhibition study.\nAll metabolites and the IS were separated on a Kinetex XB-C18 column (100 × 2.10 mm, 2.6 μm, 100 Å; Phenomenex, Torrance, CA, USA) and analyzed using a Shimadzu LCMS 8060 triple-quadrupole mass spectrometer coupled with a Nexera X2 ultra high-performance liquid chromatography system (Shimadzu, Kyoto, Japan) equipped with an electrospray ionization interface. The mobile phase consisted of 0.1% formic acid in water (A) and 0.1% formic acid in acetonitrile (B). The elution condition was set as 8% B (0–0.5 min), 8%→60% B (0.5–5 min), 60% B (5–6 min), 60%→8% B (6–6.1 min) and 8% B (6.1–9 min) for the analysis of metabolites of P450 probe substrates and set as 0%→40% B (0–1 min), 40%→50% B (1–5 min), 50%→0% B (5–5.1 min), and 0% B (5.1–8 min) for the analysis of metabolites of UGT probe substrates. The flow rate was 0.2 mL/min. Electrospray ionization was performed in positive-ion mode at 4000 V or in negative-ion mode at −3500 V. The optimum operating conditions were determined as follows: vaporizer temperature, 300 °C; capillary temperature, 350 °C; collision gas (argon) pressure, 1.5 mTorr. Quantitation was conducted in selected reaction monitoring (SRM) modes with the precursor-to-product ion transition for each metabolite (Table 1 and Table 2).\nWe analyzed the data with Shimadzu LabSolution LC–MS software. The IC50 values were calculated by WinNonlin software (Pharsight, Mountain View, CA, USA).",
  "key": {"[1]": {"conditions": "human, pooled human liver microsomes, probe amodiaquine"}},
  "data": [
    {"smiles": "O=c1cc(-c2ccc(O)c(-c3c(O)cc(O)c4c(=O)cc(-c5ccc(O)cc5)oc34)c2)oc2cc(O)cc(O)c12", "note": "[amentoflavone]", "values": [
      {"measurement": "Mode of Inhibition, CYP2C8 amodiaquine", "setting": "HLMs", "value": "Noncompetitive"},
      {"measurement": "Ki", "setting": "HLMs", "value": "83 ± 9", "unit": "nM"},
      {"measurement": "IC50", "value": 84, "unit": "nM"}
    ]},
    {"smiles": "O=c1cc(-c2ccc(O)cc2)oc2c(-c3c(O)cc(O)c4c(=O)cc(-c5ccc(O)cc5)oc34)c(O)cc(O)c12", "note": "[cupressuflavone]", "values": [
      {"measurement": "Mode of Inhibition, CYP2C8 amodiaquine", "setting": "HLMs", "value": "Noncompetitive"},
      {"measurement": "Ki", "setting": "HLMs", "value": "103 ± 17", "unit": "nM"},
      {"measurement": "IC50", "value": 83, "unit": "nM"}
    ]},
    {"smiles": "CC(C)(O)c1ccccc1CC[C@@H](SCC1(CC(=O)O)CC1)c1cccc(/C=C/c2ccc3ccc(Cl)cc3n2)c1", "note": "[montelukast, reference compound]", "values": [
      {"measurement": "Times weaker CYP2C8 inhibition than selamariscina A", "setting": "IC50 comparison at 0.25 mg/mL microsomal protein", "value": "more than 25 times"},
      {"measurement": "inhibition at 10 min, 0.5 µM", "setting": "[1]", "value": 52.7, "unit": "%"},
      {"measurement": "inhibition at 10 min, 5 µM", "setting": "human, pooled human liver microsomes, probe amodiaquine, inhibitor 5 μM, HLMs", "value": 86.1, "unit": "%"}
    ]},
    {"smiles": "O=c1cc(-c2ccc(O)c(-c3c(O)cc4oc(-c5ccc(O)cc5)cc(=O)c4c3O)c2)oc2cc(O)cc(O)c12", "note": "[robustaflavone]", "values": [
      {"measurement": "Mode of Inhibition, CYP2C8 amodiaquine", "setting": "HLMs", "value": "Noncompetitive"},
      {"measurement": "Ki", "setting": "HLMs", "value": "84 ± 16", "unit": "nM"},
      {"measurement": "IC50", "value": 83, "unit": "nM"}
    ]},
    {"smiles": "O=C1CC(c2cc(-c3c(O)ccc4c(=O)cc(-c5ccc(O)cc5)oc34)c(O)cc2O)Oc2cc(O)cc(O)c21", "note": "(centres unmarked) [selamariscina A]", "values": [
      {"measurement": "Times stronger CYP2C8 inhibitory potential than amentoflavone", "value": "more than 4.5 times"},
      {"measurement": "Mode of Inhibition, CYP2C8 amodiaquine", "setting": "HLMs", "value": "Noncompetitive"},
      {"measurement": "Ki", "setting": "HLMs", "value": "18 ± 2", "unit": "nM"},
      {"measurement": "inhibition at 10 min, 0.5 µM", "setting": "[1]", "value": 92.8, "unit": "%"},
      {"measurement": "IC50", "value": 19, "unit": "nM"}
    ]},
    {"smiles": "O=c1cc(-c2ccc(O)c(-c3c(-c4ccc(O)cc4)oc4cc(O)cc(O)c4c3=O)c2)oc2cc(O)cc(O)c12", "note": "[taiwaniaflavone]", "values": [
      {"measurement": "Mode of Inhibition, CYP2C8 amodiaquine", "setting": "HLMs", "value": "Noncompetitive"},
      {"measurement": "Ki", "setting": "HLMs", "value": "142 ± 26", "unit": "nM"},
      {"measurement": "IC50", "value": 120, "unit": "nM"}
    ]}
  ]
}
